According to patent US10849881B2, “Octahydro-cyclobuta[1,2-c;3,4-c′]dipyrrol-2-yl” (Hoffmann-La Roche Inc., priority 2013, dated 2020):

What follows are molecules tested against ATX (human His-tagged) (Homo sapiens (Human), UniProt Q13822) (assay: Human ATX enzyme inhibition assay (fluorescence quenching, MR121 substrate)). Conditions: 30 nM ATX, 1 μM MR121 substrate, 30° C., pH 8.0.
Type: biochemical
Procedure: Human ATX Enzyme Inhibition Assay
ATX inhibition was measured by a fluorescence quenching assay using a specifically labeled substrate analogue (MR121 substrate). To obtain this MR121 substrate, BOC and TBS protected 6-amino-hexanoic acid (R)-3-({2-[3-(2-{2-[2-(2-amino-ethoxy)-ethoxy]-ethoxy}-ethoxy)-propionylamino]-ethoxy}-hydroxy-phosphoryloxy)-2-hydroxy-propyl ester (Ferguson et al., Org Lett 2006, 8 (10), 2023) was labeled with MR121 fluorophore (CAS 185308-24-1, 1-(3-carboxypropyl)-11-ethyl-1,2,3,4,8,9,10,11-octahydro-dipyrido[3,2-b:2′,3′-i]phenoxazin-13-ium) on the free amine of the ethanolamine side and then, after deprotection, subsequently with tryptophan on the side of the aminohexanoic acid.
Assay working solutions were made as follows:
Assay buffer (50 mM Tris-HCl, 140 mM NaCl, 5 mM KCl, 1 mM CaCl2, 1 mM MgCl2, 0.01% Triton-X-100, pH 8.0;
ATX solution: ATX (human His-tagged) stock solution (1.08 mg/mL in 20 mM bicine, pH 8.5, 0.15 M NaCl, 10% glycerol, 0.3% CHAPS, 0.02% NaN3), diluted to 1.4-2.5× final concentration in assay buffer;
MR121 substrate solution: MR121 substrate stock solution (800 μM MR121 substrate in DMSO), diluted to 2-5× final concentration in assay buffer.
Test compounds (10 mM stock in DMSO, 8 μL) were obtained in 384 well sample plates (Corning Costar #3655) and diluted with 8 μL DMSO. Row-wise serial dilutions were made by transferring 8 μL cpd solution to the next row up to row O. The compound and control solutions were mixed five times and 2 μL were transferred to 384 well assay plates (Corning Costar #3702). Then, 15 μL of 41.7 nM ATX solution was added (30 nM final concentration), mixed five times and then incubated for 15 minutes at 30° C. 10 μL of MR121 substrate solution was added (1 μM final concentration), mixed 30 times and then incubated for 15 minutes at 30′C.
For `O=C(c1ccc2[nH]nnc2c1)N1C[C@@H]2[C@H](C1)[C@H]1CN(C(=O)c3ccc4cc[nH]c4c3)C[C@@H]21` [Example 1.040, [(3aS,3bS,6aR,6bR)-5-(1H-benzotriazole-5-carbonyl)-octahydro-cyclobuta[1,2-c;3,4-c′]dipyrrol-2-yl]-(1H-indol-6-yl)-methanone], the IC50 was 8670 nM. Molecule `CC(C)Oc1cc(C(=O)N2C[C@@H]3[C@H](C2)[C@H]2CN(C(=O)c4ccc5[nH]nnc5c4)C[C@@H]32)cc2ccccc12` [Example 1.052, [(3aS,3bS,6aR,6bR)-5-(1H-benzotriazole-5-carbonyl)-octahydro-cyclobuta[1,2-c;3,4-c′]dipyrrol-2-yl]-(4-isopropoxy-naphthalen-2-yl)-methanone] has an IC50 of 3.5 nM. `O=C(c1ccc2[nH]nnc2c1)N1C[C@@H]2[C@H](C1)[C@H]1CN(C(=O)c3cc4ccccc4[nH]3)C[C@@H]21` [Example 1.023, [(3aR,3bS,6aR,6bS)-5-(1H-benzotriazole-5-carbonyl)-octahydro-cyclobuta[1,2-c;3,4-c′]dipyrrol-2-yl]-(1H-indol-2-yl)-methanone] showed an IC50 of 1470 nM. Work on `O=C(c1ccc2[nH]nnc2c1)N1C[C@@H]2[C@H](C1)[C@H]1CN(C(=O)C3CCc4ccccc4C3)C[C@@H]21` (stereo partly drawn) [Example 1.031, [(3aS,3bR,6aS,6bR)-5-(1H-benzotriazole-5-carbonyl)-octahydro-cyclobuta[1,2-c;3,4-c′]dipyrrol-2-yl]-(1,2,3,4-tetrahydro-naphthalen-2-yl)-methanone] yielded an IC50 of 224 nM. Work on `O=C1CC(C(=O)N2C[C@@H]3[C@H]4CN(C(=O)c5ccc6[nH]nnc6c5)C[C@H]4[C@@H]3C2)Cc2ccccc21` (stereo partly drawn) [Example 1.041, 3-[(3aS,3bR,6aS,6bR)-5-(1H-benzotriazole-5-carbonyl)-octahydro-cyclobuta[1,2-c;3,4-c′]dipyrrole-2-carbonyl]-3,4-dihydro-2H-naphthalen-1-one] yielded an IC50 of 538 nM. With `COc1cccc(C(=O)N2C[C@@H]3[C@H](C2)[C@H]2CN(C(=O)c4ccc5[nH]nnc5c4)C[C@@H]32)c1` [Example 1.028, [(3aS,3bS,6aR,6bR)-5-(1H-benzotriazole-5-carbonyl)-octahydro-cyclobuta[1,2-c;3,4-c′]dipyrrol-2-yl]-(3-methoxy-phenyl)-methanone] the IC50 was 2830 nM. `O=C(OCc1ccc(OC(F)(F)F)cc1)N1C[C@@H]2[C@H](C1)[C@H]1CN(C(=O)c3ccc4[nH]nnc4c3)C[C@@H]21` [Example 2, (3aR,3bS,6aR,6bS)-5-(1H-Benzotriazole-5-carbonyl)-octahydro-cyclobuta[1,2-c;3,4-c′]dipyrrole-2-carboxylic acid 4-trifluoromethoxy-benzyl Ester] showed an IC50 of 14 nM. Molecule `O=C(c1ccc2[nH]nnc2c1)N1C[C@@H]2[C@H](C1)[C@H]1CN(C(=O)c3cc4cc(Cl)ccc4[nH]3)C[C@@H]21` [Example 1.048, [(3aR,3bS,6aR,6bS)-5-(1H-benzotriazole-5-carbonyl)-octahydro-cyclobuta[1,2-c;3,4-c′]dipyrrol-2-yl]-(5-chloro-1H-indol-2-yl)-methanone] has an IC50 of 208 nM. Molecule `COc1cc(C(=O)N2C[C@@H]3[C@H](C2)[C@H]2CN(C(=O)[C@@H]4CCc5[nH]nnc5C4)C[C@@H]32)cc2ccccc12` [Example 1.044, (4-methoxy-naphthalen-2-yl)-[(3aR,3bS,6aR,6bS)-5-((R)-4,5,6,7-tetrahydro-1H-benzotriazole-5-carbonyl)-octahydro-cyclobuta[1,2-c;3,4-c′]dipyrrol-2-yl]-methanone] has an IC50 of 13 nM. With `CC(C)Cn1c(C(=O)N2C[C@@H]3[C@H]4CN(C(=O)c5ccc6[nH]nnc6c5)C[C@H]4[C@@H]3C2)cc2ccccc21` [Example 1.037, [(3aR,3bS,6aR,6bS)-5-(1H-benzotriazole-5-carbonyl)-octahydro-cyclobuta[1,2-c;3,4-c′]dipyrrol-2-yl]-(1-isobutyl-1H-indol-2-yl)-methanone] the IC50 was 159 nM. For `O=C(c1cnc(OCC(F)(F)F)c(-c2ccco2)c1)N1C[C@@H]2[C@H](C1)[C@H]1CN(C(=O)c3ccc4[nH]nnc4c3)C[C@@H]21` [Example 1.108, (1H-benzotriazol-5-yl)-{(3aS,3bS,6aR,6bR)-5-[5-furan-2-yl-6-(2,2,2-trifluoro-ethoxy)-pyridine-3-carbonyl]-octahydro-cyclobuta[1,2-c;3,4-c′]dipyrrol-2-yl}-methanone], the IC50 was 6 nM. For `O=C(c1ccc2cc(Br)ccc2c1)N1C[C@@H]2[C@H](C1)[C@H]1CN(C(=O)[C@@H]3CCc4[nH]nnc4C3)C[C@@H]21` [Example 1.016, (6-bromo-naphthalen-2-yl)-[(3aR,3bS,6aR,6bS)-5-((R)-4,5,6,7-tetrahydro-1H-benzotriazole-5-carbonyl)-octahydro-cyclobuta[1,2-c;3,4-c′]dipyrrol-2-yl]-methanone], the IC50 was 17 nM. `Cc1ccc2cc(C(=O)N3C[C@@H]4[C@H](C3)[C@H]3CN(C(=O)c5ccc6[nH]nnc6c5)C[C@@H]43)ccc2c1` [Example 1.013, [(3aS,3bS,6aR,6bR)-5-(1H-benzotriazole-5-carbonyl)-octahydro-cyclobuta[1,2-c;3,4-c′]dipyrrol-2-yl]-(6-methyl-naphthalen-2-yl)-methanone] was tested, and the IC50 was 54 nM. With `CCOc1cc(C(=O)N2C[C@@H]3[C@H]4CN(C(=O)c5ccc6[nH]nnc6c5)C[C@H]4[C@@H]3C2)nc2c1CCCC2` [Example 1.088] the IC50 was 41.3 nM. Work on `CCOc1cc(C(=O)N2C[C@@H]3[C@H]4CN(C(=O)c5ccc6[nH]nnc6c5)C[C@H]4[C@@H]3C2)nc2ccc(Cl)cc12` [Example 1.096, [(3aR,3bS,6aR,6bS)-5-(1H-benzotriazole-5-carbonyl)-octahydro-cyclobuta[1,2-c;3,4-c′]dipyrrol-2-yl]-(6-chloro-4-ethoxy-quinolin-2-yl)-methanone] yielded an IC50 of 12 nM. `O=C(c1ccc(-c2ccc(Cl)cc2)cc1)N1C[C@@H]2[C@H](C1)[C@H]1CN(C(=O)[C@@H]3CCc4[nH]nnc4C3)C[C@@H]21` [Example 1.018, (4′-chloro-biphenyl-4-yl)-[(3aR,3bS,6aR,6bS)-5-((R)-4,5,6,7-tetrahydro-1H-benzotriazole-5-carbonyl)-octahydro-cyclobuta[1,2-c;3,4-c′]dipyrrol-2-yl]-methanone] gave an IC50 of 16 nM. With `CS(=O)(=O)c1cc(C(=O)N2C[C@@H]3[C@H]4CN(C(=O)c5ccccc5)C[C@H]4[C@@H]3C2)cnc1OCC(F)(F)F` [Example 1.111, {(3aS,3bS,6aR,6bR)-5-[5-methanesulfonyl-6-(2,2,2-trifluoro-ethoxy)-pyridine-3-carbonyl]-octahydro-cyclobuta[1,2-c;3,4-c′]dipyrrol-2-yl}-phenyl-methanone] the IC50 was 330 nM. `O=C(c1ccc2[nH]nnc2c1)N1C[C@@H]2[C@H](C1)[C@H]1CN(C(=O)c3cc4cc(OC(F)(F)F)ccc4[nH]3)C[C@@H]21` [Example 1.010, [(3aR,3bS,6aR,6bS)-5-(1H-benzotriazole-5-carbonyl)-octahydro-cyclobuta[1,2-c;3,4-c′]dipyrrol-2-yl]-(5-trifluoromethoxy-1H-indol-2-yl)-methanone] showed an IC50 of 16 nM. For `CCOc1cc(C(=O)N2C[C@@H]3[C@H]4CN(C(=O)c5ccc6[nH]nnc6c5)C[C@H]4[C@@H]3C2)nc2ccccc12` [Example 1.066, [(3aR,3bS,6aR,6bS)-5-(1H-benzotriazole-5-carbonyl)-octahydro-cyclobuta[1,2-c;3,4-c′]dipyrrol-2-yl]-(4-ethoxy-quinolin-2-yl)-methanone], the IC50 was 5 nM. For `CC1(C)CC(C(=O)N2C[C@@H]3[C@H]4CN(C(=O)c5ccc6[nH]nnc6c5)C[C@H]4[C@@H]3C2)Cc2ccccc21` (stereo partly drawn) [Example 1.055, [(3aS,3bR,6aS,6bR)-5-(1H-benzotriazole-5-carbonyl)-octahydro-cyclobuta[1,2-c;3,4-c′]dipyrrol-2-yl]-(4,4-dimethyl-1,2,3,4-tetrahydro-naphthalen-2-yl)-methanone], the IC50 was 22 nM. `O=C(c1ccc(OCC(F)(F)F)nc1)N1C[C@@H]2[C@H](C1)[C@H]1CN(C(=O)c3ccc4[nH]nnc4c3)C[C@@H]21` [Example 1.099, (1H-benzotriazol-5-yl)-{(3aS,3bS,6aR,6bR)-5-[6-(2,2,2-trifluoro-ethoxy)-pyridine-3-carbonyl]-octahydro-cyclobuta[1,2-c;3,4-c′]dipyrrol-2-yl}-methanone] was tested, and the IC50 was 277 nM. Work on `O=C(c1cc2cc(OC(F)(F)F)ccc2[nH]1)N1C[C@@H]2[C@H](C1)[C@H]1CN(C(=O)[C@@H]3CCc4[nH]nnc4C3)C[C@@H]21` [Example 1.019, [(3aR,3bS,6aR,6bS)-5-((R)-4,5,6,7-tetrahydro-1H-benzotriazole-5-carbonyl)-octahydro-cyclobuta[1,2-c;3,4-c′]dipyrrol-2-yl]-(5-trifluoromethoxy-1H-indol-2-yl)-methanone] yielded an IC50 of 11.5 nM.
